Measurements published in article PMC7412453, “SAR:s for the Antiparasitic Plant Metabolite Pulchrol. 1. The Benzyl Alcohol Functionality” (Molecules, 2020).
Where two headings read alike, the source gives them in different places.

Columns and labels:
T. cruzi epimastigotes = test: Trypanocidal activity against T. cruzi epimastigotes (XTT); type: cell-based, Trypanosoma cruzi; conditions: for IC50: Trypanosoma cruzi, epimastigotes, 72 h at 26 °C, XTT, triplicates, read-out: T. cruzi IC50; for selectivity ratio at 72 h: mouse (RAW 264.7 cells) / Trypanosoma cruzi (epimastigotes), RAW cell IC50 / T. cruzi IC50, read-out: T. cruzi SI (selectivity index, cytotoxicity/anti-protozoal activity)
Experimental: Trypanocidal activity was determined according to Muelas-Serrano with some modifications. […] Benznidazol (3.1–100 μg/mL) was used as the control drug. Assays were performed in triplicates.

[1] = test system: L. brasiliensis promastigotes; test: Leishmanicidal activity against L. brasiliensis promastigotes (XTT); conditions: for IC50: 72 h, read-out: L. brasiliensis IC50
Experimental: (§1) Evaluations against Leishmania parasites: Promastigotes of Leishmania-Leishmania: L. amazonensis, Clone 1, NHOM-BR-76-LTB-012 (Lma, donated by the Paul Sabatier Université, France) and Leishmania-Viannia: L. braziliensis M2904 C192 RJA (M2904, donated by Dr. Jorge Arévalo from Universidad Peruana Cayetano Heredia, Peru). All strains were cultured in Schneider’s insect medium, (pH 6.2) supplemented with 10% FBS and incubated at 26 °C. Medium changes were made every 72 h to maintain a viable parasitic population. Leishmanicidal activity was determined according to Williams with some modifications. Samples were dissolved in DMSO (maximum final concentration 1%) at 10 mg/mL. Promastigotes in logarithmic phase of growth, at the concentration 3 × 10^6 parasites/mL, were distributed (100 μL/well) in 96-well flat bottom microtiter plates. Samples with different concentrations (3.1–100 μg/mL) were added (100 μL). […] Assays were performed in triplicates. The microwell plates were incubated for 72 h at 26 °C. After incubation, a solution of XTT (1 mg/mL) in PBS (pH 7.0 at 37 °C) with PMS (0.06 mg/mL) was added (50 μL/well), and incubated for 3 h at 26 °C. The optical density of each well was measured and the IC50 values calculated.

[2] = test system: L. amazoniensis promastigotes; test: Leishmanicidal activity against L. amazoniensis promastigotes (XTT); conditions: for IC50: Leishmania amazonensis, 72 h, read-out: L. amazoniensis IC50
Experimental: as §1, with “All” for “Evaluations against Leishmania parasites: Promastigotes of Leishmania-Leishmania: L. amazonensis, Clone 1, NHOM-BR-76-LTB-012 (Lma, donated by the Paul Sabatier Université, France) and Leishmania-Viannia: L. braziliensis M2904 C192 RJA (M2904, donated by Dr. Jorge Arévalo from Universidad Peruana Cayetano Heredia, Peru). All”

[3] = Cytotoxicity in RAW cells (Resazurin); type: cell-based, murine; conditions: mouse
Experimental: Evaluations against RAW cells: The Raw 264.7 murine macrophage cell line was purchased from the American Type Culture Collection (ATCC-TIB71). The cells were maintained in DMEM-HG medium supplemented with 10% fetal bovine serum, 100 U/mL of penicillin and 100 μg/mL of streptomycin, and sodium bicarbonate (2.2 g/L) in humidified atmosphere at 37 °C with 5% CO2. Samples were prepared as described above and added (in 100 μL DMSO) at different concentrations (6.2–200 μg/mL). Medium blank, control drugs and cell growth controls were included to evaluate cell viability. The plates were incubated for 72 h at 37 °C with 5% CO2. After incubation for the indicated time, the cells were washed, after which 10 μL of Resazurin reagent (2.0 mM) was added. They were further incubated at 37 °C for 3 h in a humidified incubator. The IC50 values were assessed using a fluorometric reader (540 nm excitation, 590 nm emission) and the Gen5 software. All assays were performed in triplicate.

[4] = L. brasiliensis SI (selectivity index, cytotoxicity/anti-protozoal activity), RAW cell IC50 / L. brasiliensis IC50
[5] = L. amazoniensis SI (selectivity index, cytotoxicity/anti-protozoal activity), RAW cell IC50 / L. amazoniensis IC50

SMILES | IC50 (T. cruzi epimastigotes) | selectivity ratio at 72 h (T. cruzi epimastigotes) | selectivity ratio at 72 h [1] | IC50 [1] | selectivity ratio at 72 h [2] | IC50 [2] | IC50 at 72 h [3] | IC50 at 72 h ([3]; RAW cells, 72 h at 37 °C, Resazurin, triplicate, read-out: Cytotoxicity IC50) | selectivity ratio at 72 h [1, 4] | selectivity ratio at 72 h [2, 5]
COc1ccc2c(c1)-c1cc(COC(=O)CCC3CCCC3)ccc1C(C)(C)O2 [4h, (2-Methoxy-6,6-dimethyl-6H-benzo[c]chromen-9-yl)methyl 3-cyclopentylpropanoate] | 8.4 ± 3.3 µM | 6.1 | 0.4 | 122 ± 27.9 µM | 1.6 | 30.9 ± 3 µM | 50.7 ± 17.7 µM |  |  | 
COc1ccc2c(c1)-c1cc(COC(=O)C3CCCCC3)ccc1C(C)(C)O2 [4i, (2-Methoxy-6,6-dimethyl-6H-benzo[c]chromen-9-yl)methyl cyclohexanecarboxylate] | 13.1 ± 0.5 µM | 3.9 | 2.1 | 24.3 ± 0.8 µM | 1.3 | 40.5 ± 8.7 µM | 51.3 ± 8.2 µM |  |  | 
CCCCCC(=O)OCc1ccc2c(c1)-c1cc(OC)ccc1OC2(C)C [4g, (2-Methoxy-6,6-dimethyl-6H-benzo[c]chromen-9-yl)methyl hexanoate] | 22.8 ± 5.7 µM | 2.3 | 1.9 | 27.7 ± 0.3 µM | 1.2 | 42.3 ± 8.7 µM |  | 52.1 ± 8.1 µM |  | 
COc1ccc2c(c1)-c1cc(C(C)=O)ccc1C(C)(C)O2 [5b, 1-(2-Methoxy-6,6-dimethyl-6H-benzo[c]chromen-9-yl)ethan-1-one] | 21.2 ± 9.2 µM | 1.5 |  | 28.3 ± 7.1 µM |  | 43.2 ± 8.2 µM | 31.9 ± 7.1 µM |  | 1.1 | 0.7
COc1ccc2c(c1)-c1cc(C=O)ccc1C(C)(C)O2 [5a, 2-Methoxy-6,6-dimethyl-6H-benzo[c]chromene-9-carbaldehyde] | 24.2 ± 4.1 µM | 1.6 |  | 24.2 ± 7.5 µM |  | 29.8 ± 11.2 µM | 38.8 ± 3.7 µM |  | 1.6 | 1.3
COc1ccc2c(c1)-c1cc(CNCCC(C)C)ccc1C(C)(C)O2 [3h, N-((2-Methoxy-6,6-dimethyl-6H-benzo[c]chromen-9-yl)methyl)-3-methylbutan-1-amine] | 5.9 ± 1.2 µM | 1.3 |  | 15.9 ± 0.9 µM |  | 17.7 ± 7.4 µM | 7.4 ± 2.4 µM |  | 0.5 | 0.4
COc1ccc2c(c1)-c1cc(COC(=O)c3ccccc3)ccc1C(C)(C)O2 [4l, (2-Methoxy-6,6-dimethyl-6H-benzo[c]chromen-9-yl)methyl benzoate] | 5.9 ± 0.5 µM | 4.7 |  | 21 ± 4.3 µM |  | 21.9 ± 7.7 µM | 27.8 ± 10.7 µM |  | 1.3 | 1.3
COc1ccc2c(c1)-c1cc(COC(C)=O)ccc1C(C)(C)O2 [4a, (2-Methoxy-6,6-dimethyl-6H-benzo[c]chromen-9-yl)methyl acetate] | 14.4 ± 1.6 µM | 2.3 |  | 28.8 ± 0.3 µM |  | 26.9 ± 0.6 µM | 32.7 ± 22.4 µM |  | 1.1 | 1.2
COc1ccc2c(c1)-c1cc(COC(=O)CC(C)C)ccc1C(C)(C)O2 [4e, (2-Methoxy-6,6-dimethyl-6H-benzo[c]chromen-9-yl)methyl 3-methylbutanoate] | 4.2 ± 1.1 µM | 6.7 |  | 13.1 ± 0.4 µM |  | 14.5 ± 0.1 µM | 28.2 ± 9 µM |  | 2.2 | 1.9
COc1ccc2c(c1)-c1cc(CNCC(C)C)ccc1C(C)(C)O2 [3g, N-((2-Methoxy-6,6-dimethyl-6H-benzo[c]chromen-9-yl)methyl)-2-methylpropan-1-amine] | 15.4 ± 4 µM | 0.8 |  | 25.8 ± 6.2 µM |  | 15.4 ± 3.1 µM | 12.3 ± 1.2 µM |  | 0.5 | 0.8
